US20240270821A1, “GIP/GLP1/GCG TRI-RECEPTOR AGONISTS AND USES THEREOF” (priority 2023, published 2024)
Read-outs that look alike come from different tables or passages of the source. Starred links: 1 amine or outer side, 2 acyl side, 3 side chain; linkers in the order of their positions; H or OH if unused. Non-standard residues stand in square brackets, D forms with d. Groups on a side chain read outwards from the residue. *: point of attachment. C18 diacid = O=C(O)CCCCCCCCCCCCCCCCC(=O)*; γGlu = O=C(O)[C@H](CCC(=O)[*:2])N[*:1]; αMe4Pal = C[C@](N)(Cc1ccncc1)C(=O)O; αMeY = C[C@](N)(Cc1ccc(O)cc1)C(=O)O; 4Pal = N[C@@H](Cc1ccncc1)C(=O)O; αMeL = CC(C)C[C@](C)(N)C(=O)O; Orn = NCCC[C@H](N)C(=O)O; Aib = CC(C)(N)C(=O)O

What was measured:
Format in all cases: cell-based
hGcgR = hGcgR (Homo sapiens, UniProt P47871); experiment: Functional cAMP activation in the presence of 0.1% casein (no HSA);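 also: intracellular cAMP rise after 30 min at 37 °C, read by HTRF against a cAMP standard curve, scaled from buffer only (0%) to maximal control ligand response (100%)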
hGIPR [1] = biological target: T1, hGIPR (Homo sapiens, UniProt P48546); experiment: Functional cAMP activity in the presence of 1% HSA
T1 sequence (P48546 22-466): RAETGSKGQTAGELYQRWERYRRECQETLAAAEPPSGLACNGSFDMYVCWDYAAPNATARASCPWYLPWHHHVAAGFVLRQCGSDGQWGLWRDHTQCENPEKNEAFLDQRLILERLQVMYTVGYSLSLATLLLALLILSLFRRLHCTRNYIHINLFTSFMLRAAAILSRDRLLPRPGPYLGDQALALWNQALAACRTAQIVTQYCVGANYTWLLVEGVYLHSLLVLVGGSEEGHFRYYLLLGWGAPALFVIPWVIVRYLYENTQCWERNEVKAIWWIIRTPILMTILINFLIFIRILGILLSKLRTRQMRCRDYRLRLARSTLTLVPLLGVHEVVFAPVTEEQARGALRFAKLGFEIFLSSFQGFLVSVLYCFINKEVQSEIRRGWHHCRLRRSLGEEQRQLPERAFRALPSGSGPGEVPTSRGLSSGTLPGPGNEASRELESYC

human GcgR = human GcgR (Homo sapiens, UniProt P47871); experiment: Functional cAMP activity in the presence of 1% HSA
hGLP-1R [2] = biological target: T2, hGLP-1R (Homo sapiens, UniProt P43220); experiment: Functional cAMP activation in the presence of 0.1% casein (no HSA);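 also: intracellular cAMP rise after 30 min at 37 °C read by HTRF, normalized between buffer only (0%) and maximal control ligand (100%), four-parameter variable-slope fit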
hGIPR [3] = biological target: T1, hGIPR; experiment: as above
hGLP-1R [4] = biological target: T2, hGLP-1R; experiment: Functional cAMP activity in the presence of 1% HSA
[5] = in the presence of 0.1% casein (no HSA), geometric mean, read-out: Relative cAMP EC50, hGcgR
[6] = in the presence of 0.1% casein (no HSA), geometric mean, read-out: Relative cAMP EC50, hGLP-1R
[7] = in the presence of 0.1% casein (no HSA), geometric mean, read-out: Relative cAMP EC50, hGIPR
[8] = read-out: cAMP Rel EC50, hGLP-1R
[9] = HEK-293 clonal cell line, in the presence of 1% HSA, geometric mean of relative EC50, read-out: cAMP Rel EC50, hGIPR
[10] = HEK-293 clonal cell line, in the presence of 1% HSA, geometric mean of relative EC50, read-out: cAMP Rel EC50, hGcgR
[11] = HEK-293 clonal cell line, in the presence of 1% HSA, geometric mean of relative EC50, read-out: cAMP Rel EC50, hGLP-1R
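For Relative cAMP EC50, hGIPR in this document: intracellular cAMP rise after 30 min at 37 °C read by HTRF against a standard curve, scaled between buffer alone (0%) and top control ligand concentration (100%), four-parameter fit.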

T2 sequence (P43220 24-463): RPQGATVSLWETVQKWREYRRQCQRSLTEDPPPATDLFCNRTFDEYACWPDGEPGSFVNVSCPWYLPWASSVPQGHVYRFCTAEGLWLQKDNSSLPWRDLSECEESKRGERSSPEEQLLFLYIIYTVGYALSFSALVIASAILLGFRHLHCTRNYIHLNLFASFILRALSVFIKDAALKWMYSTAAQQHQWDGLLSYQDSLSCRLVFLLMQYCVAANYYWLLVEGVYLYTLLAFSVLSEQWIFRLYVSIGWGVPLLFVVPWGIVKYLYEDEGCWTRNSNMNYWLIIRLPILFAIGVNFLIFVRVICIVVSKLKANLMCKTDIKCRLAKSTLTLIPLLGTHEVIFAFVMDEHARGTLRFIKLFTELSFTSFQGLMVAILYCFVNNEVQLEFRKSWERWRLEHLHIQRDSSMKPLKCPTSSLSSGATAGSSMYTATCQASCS
Chain of human GcgR (P47871 26-477): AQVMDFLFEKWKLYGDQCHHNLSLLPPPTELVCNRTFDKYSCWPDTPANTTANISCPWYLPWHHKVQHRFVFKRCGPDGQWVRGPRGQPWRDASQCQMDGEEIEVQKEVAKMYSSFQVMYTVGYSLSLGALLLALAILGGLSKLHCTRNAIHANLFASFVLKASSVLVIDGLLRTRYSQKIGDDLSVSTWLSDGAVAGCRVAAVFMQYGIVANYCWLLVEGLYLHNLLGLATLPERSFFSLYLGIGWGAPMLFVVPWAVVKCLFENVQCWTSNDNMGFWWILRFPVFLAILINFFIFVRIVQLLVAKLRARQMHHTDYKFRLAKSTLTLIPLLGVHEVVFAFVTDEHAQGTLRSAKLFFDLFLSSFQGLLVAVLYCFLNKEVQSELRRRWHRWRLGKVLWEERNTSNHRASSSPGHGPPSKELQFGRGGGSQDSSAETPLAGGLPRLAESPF
Chain of hGcgR (P47871 26-477): as above

Substance | EC50 (hGcgR; [5]) [nM] | EC50 (hGIPR [1]; read-out: cAMP Rel EC50, hGIPR) [nM] | EC50 (human GcgR; read-out: cAMP Rel EC50, hGcgR) [nM] | EC50 (hGLP-1R [2]; [6]) [nM] | EC50 (hGIPR [3]; [7]) [nM] | EC50 (hGLP-1R [4]; [8]) [nM] | EC50 (hGIPR [1]; [9]) [nM] | EC50 (human GcgR; [10]) [nM] | EC50 (hGLP-1R [4]; [11]) [nM] | EC50 (hGcgR) [nM] | EC50 (hGIPR [1]) [nM] | EC50 (human GcgR) [nM] | EC50 (hGLP-1R [2]) [nM] | EC50 (hGIPR [3]) [nM] | EC50 (hGLP-1R [4]) [nM]
H-Y[Aib]QGTFTSD[4Pal]S[Orn][αMeL]LD[Orn]K([γGlu-γGlu-C18 diacid])AQ[αMe4Pal]AFIE[αMeY]LIEGGPSSGAPPPSGS-NH2 [Example 1013] | 2 | 22.6 | 285 | 0.449 | 0.208 | 137 | – | – | – | – | – | – | – | – | –
H-Y[Aib]QGTFTSD[4Pal]S[Orn][αMeL]LD[Orn]K([γGlu-γGlu-C18 diacid])AQ[αMe4Pal]EFIEYLLAGGPSSGAPPPSGSEE-NH2 [Example 1003] | 5.07 | 15.9 | 371 | 42.4 | 0.272 | 1950 | – | – | – | – | – | – | – | – | –
H-Y[Aib]QGTFTSD[4Pal]S[Orn][αMeL]LD[Orn]K([γGlu-γGlu-C18 diacid])AQ[αMe4Pal]EFIE[αMeY]LIEGGPSSGAPPPSGSEE-NH2 [Example 973] | 17.6 | 60.1 | 2270 | 6.1 | 0.503 | 1140 | – | – | – | – | – | – | – | – | –
H-Y[Aib]QGTFTSD[4Pal]S[Orn][αMeL]LD[Orn]K([γGlu-γGlu-C18 diacid])AQ[αMe4Pal]EFIE[αMeY]LLAGGPSSGAPPPSGSEE-NH2 [Example 996] | 14.9 | – | – | 98.1 | 0.2 | – | 11.2 | 1160 | 4810 | – | – | – | – | – | –
H-Y[Aib]QGTFTSD[4Pal]S[Orn][αMeL]LD[Orn]K([γGlu-γGlu-C18 diacid])AQ[αMe4Pal]EFIE[αMeY]LLEGGPSSGAPPPSGSEE-NH2 [Example 976] | 8.75 | 82.7 | 848 | 21.8 | 0.441 | 2860 | – | – | – | – | – | – | – | – | –
H-Y[Aib]QGTFTSD[4Pal]S[Orn][αMeL]LD[Orn]K([γGlu-γGlu-C18 diacid])AQ[αMe4Pal]QFIEYLIAGGPSSGAPPPSGSEE-NH2 [Example 1000] | 4.62 | 15.5 | 501 | 3.55 | 0.176 | 279 | – | – | – | – | – | – | – | – | –
H-Y[Aib]QGTFTSD[4Pal]S[Orn][αMeL]LD[Orn]K([γGlu-γGlu-C18 diacid])AQ[αMe4Pal]QFIEYLLAGGPSSGAPPPSGSEE-NH2 [Example 1002] | 1.89 | 11.6 | 197 | 9.09 | 0.119 | 1290 | – | – | – | – | – | – | – | – | –
H-Y[Aib]QGTFTSD[4Pal]S[Orn][αMeL]LD[Orn]K([γGlu-γGlu-C18 diacid])AQ[αMe4Pal]QFIE[αMeY]LLEGGPSSGAPPPSGSEE-NH2 [Example 975] | – | – | – | – | – | – | – | – | – | 2.61 | 30.1 | 374 | 10.2 | 0.344 | 1810
H-Y[Aib]QGTFTSD[4Pal]S[Orn][αMeL]LD[Orn]K([γGlu-γGlu-C18 diacid])AQ[αMe4Pal][Orn]FIEYLLAGGPSSGAPPPSGSEE-NH2 [Example 1004] | 2.67 | 35.4 | 237 | 9.34 | 0.519 | 973 | – | – | – | – | – | – | – | – | –
H-Y[Aib]QGTFTSD[4Pal]S[Orn][αMeL]LD[Orn]K([γGlu-γGlu-C18 diacid])AQ[αMe4Pal][Orn]FIE[αMeY]LIEGGPSSGAPPPSGSEE-NH2 [Example 974] | 3.7 | 80.9 | 870 | 1.57 | 0.607 | 283 | – | – | – | – | – | – | – | – | –
H-Y[Aib]QGTFTSD[4Pal]S[Orn][αMeL]LD[Orn]K([γGlu-γGlu-C18 diacid])AQ[αMe4Pal][Orn]FIE[αMeY]LLAGGPSSGAPPPSGSEE-NH2 [Example 997] | 5.01 | – | – | 20.7 | 0.373 | – | 27.8 | 527 | 1880 | – | – | – | – | – | –
H-Y[Aib]QGTFTSD[4Pal]S[Orn][αMeL]LD[Orn]K([γGlu-γGlu-γGlu-C18 diacid])AQ[αMe4Pal]AFIEYLIE[Aib]GPSSGAPPPSGSE-NH2 [Example 943] | 6.58 | 23.1 | 960 | 3.58 | 0.233 | 382 | – | – | – | – | – | – | – | – | –
